Reference: patent US5624923A, “Tricyclic diazepine vasopressin antagonists and oxytocin antagonists” (priority 1995, dated 1997)

molecular target: T1, V1 Receptor Subtype in Human Platelet (Homo sapiens, UniProt P37288); assay: Binding to Vasopressin V1 receptor subtype in Human Platelet Membranes; settings: human platelet membranes;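 note: reported value is IC50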
T1 construct: tissue Hudson Valley Blood Services, Westchester Medical Center, Valhalla, N.Y; host or cells: human platelets (frozen platelet rich plasma)
T1 sequence (P37288 whole entry): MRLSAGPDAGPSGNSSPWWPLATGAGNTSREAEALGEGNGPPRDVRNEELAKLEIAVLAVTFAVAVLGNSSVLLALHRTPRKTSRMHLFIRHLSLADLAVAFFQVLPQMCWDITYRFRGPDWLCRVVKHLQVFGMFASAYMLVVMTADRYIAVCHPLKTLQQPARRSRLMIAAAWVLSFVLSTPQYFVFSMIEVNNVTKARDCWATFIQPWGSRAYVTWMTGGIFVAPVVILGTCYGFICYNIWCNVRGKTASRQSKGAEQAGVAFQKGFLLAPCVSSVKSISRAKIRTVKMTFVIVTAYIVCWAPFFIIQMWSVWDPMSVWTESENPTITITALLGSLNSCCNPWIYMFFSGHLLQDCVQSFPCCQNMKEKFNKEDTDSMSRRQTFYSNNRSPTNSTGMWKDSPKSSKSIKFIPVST

| SMILES | IC50 [µM] |
| --- | --- |
| O=C(Nc1ccc(C(=O)N2Cc3ccnn3Cc3ccccc32)cc1)c1ccc(Cl)cc1Cl [Example 217, N-[4-(4H-Pyrazolo[5,1-c][1,4]benzo-diazepin-5(10H)-ylcarbonyl)phenyl]-2,4-dichlorobenzamide] | 0.19 |
| O=C(Nc1ccc(C(=O)N2Cc3cccn3Cc3sccc32)cc1)c1ccc(Cl)cc1Cl [Example 274, N-(4-(5H-pyrrolo[1,2-a]thieno-[3,2-e][1,4]diazepin-4(10H)-ylcarbonyl)phenyl]-2,4-dichloro-benzamide] | 0.24 |
| COc1cc(C(=O)N2Cc3cccn3Cc3ccccc32)ccc1NC(=O)c1ccccc1C [Example 477, N-[4-(5H-pyrrolo[2,1-c][1,4]benzodiazepin-10(11H)-ylcarbonyl)-2-methoxy-phenyl]-2-methylbenzamide] | 0.003 |
| COc1cc(C(=O)N2Cc3cccn3Cc3ccccc32)ccc1NC(=O)c1ccc(Cl)cc1Cl [Example 478, N-[4-(5H-pyrrolo[2,1-c][1,4]benzodiazepin-10(11H)-ylcarbonyl)-2-methoxy-phenyl]-2,4-dichlorobenzamide] | 0.032 |
| COc1cc(C(=O)N2Cc3cccn3Cc3ccccc32)ccc1NC(=O)c1cccc(F)c1C [Example 479, N-[4-(5H-pyrrolo[2,1-c][1,4]benzodiazepin-10(11H)-ylcarbonyl)-2-methoxy-phenyl]-3-fluoro-2-methylbenzamide] | 0.023 |
| O=C(Nc1ccc(C(=O)N2Cc3cccn3Cc3ccccc32)cc1)c1cc([N+](=O)[O-])ccc1Cl [Example 480, N-[4-(5H-pyrrolo[2,1-c][1,4]benzodiazepin-10(11H)-ylcarbonyl)phenyl]-2-chloro-5-nitrobenzamide] | 0.54 |
| Cc1cccc(C(=O)Nc2ccc(C(=O)N3Cc4cccn4Cc4ccccc43)c(Cl)c2)c1C [Example 525, N-[4-(5H-pyrrolo[2,1-c][1,4]benzodiazepin-10(11H)-ylcarbonyl]-3-chlorophenyl]-2,3-dimethylbenzamide] | 0.43 |
| O=C(Nc1ccc(C(=O)N2Cc3cccn3Cc3ccccc32)c(Cl)c1)c1ccc(F)cc1Cl [Example 527, N-[4-(5H-pyrrolo[2,1-c][1,4]benzodiazepin-10(11H)-ylcarbonyl]-3-chlorophenyl]-4-fluoro-2-chlorobenzamide] | 0.026 |
| O=C(Nc1ccc(C(=O)N2Cc3cccn3Cc3ccccc32)c(Cl)c1)c1ccccc1C(F)(F)F [Example 528, N-[4-(5H-pyrrolo[2,1-c][1,4]benzodiazepin-10(11H)-ylcarbonyl]-3-chlorophenyl]-2-(trifluoromethyl)benzamide] | 0.2 |
| Cc1ccccc1C(=O)Nc1ccc(C(=O)N2Cc3cccn3Cc3ccccc32)cc1Cl [Example 530, N-[4-(5H-Pyrrolo[2,1-c][1,4]benzodiazepin-10(11H)-ylcarbonyl)-2-chlorophenyl]-2-methylbenzamide] | 0.003 |
